According to the NIST ThermoML archive (doi:10.1016/j.jct.2013.09.039):
Numbers after ± are expanded uncertainties.

Experiment: xn = mol fraction of the nth substance listed
Settings: Liquid, Vibrating tube method

In the case of Cc1ccc(C)cc1 [1,4-dimethylbenzene] + COC(=O)OC, the mass density (298.15 K, 20000 kPa, x2 = 0.195) is reported as 899.2 ± 4 kg/m3, the mass density (298.15 K, 20000 kPa, x2 = 0.3968) is reported as 933.2 ± 4 kg/m3 and the mass density (298.15 K, 20000 kPa, x2 = 0.4933) is reported as 951.6 ± 4 kg/m3. The mass density (298.15 K, 20000 kPa, x2 = 0.5296) was 958.2 ± 4 kg/m3, the mass density (298.15 K, 20000 kPa, x2 = 0.5993) was 973.4 ± 4 kg/m3 and the mass density (298.15 K, 20000 kPa, x2 = 0.7034) was 997 ± 4 kg/m3. The mass density (298.15 K, 20000 kPa, x2 = 0.8921) was 1042.9 ± 4 kg/m3, the mass density (298.15 K, 20000 kPa, x2 = 0.9478) was 1057.5 ± 4 kg/m3 and the mass density (298.15 K, 30000 kPa, x2 = 0.0432) was 883.4 ± 4 kg/m3. The mass density (298.15 K, 30000 kPa, x2 = 0.195) was 905.5 ± 4 kg/m3, the mass density (298.15 K, 30000 kPa, x2 = 0.3968) was 939.9 ± 4 kg/m3 and the mass density (298.15 K, 30000 kPa, x2 = 0.4933) was 958.7 ± 4 kg/m3. It also gave a mass density (298.15 K, 30000 kPa, x2 = 0.5296) of 965.4 ± 4 kg/m3, a mass density (298.15 K, 30000 kPa, x2 = 0.5993) of 980.5 ± 4 kg/m3 and a mass density (298.15 K, 30000 kPa, x2 = 0.7034) of 1004.4 ± 4 kg/m3. For the same compound, the mass density (298.15 K, 30000 kPa, x2 = 0.8023) was 1022.7 ± 4 kg/m3, the mass density (298.15 K, 30000 kPa, x2 = 0.8921) was 1050.6 ± 4 kg/m3 and the mass density (298.15 K, 30000 kPa, x2 = 0.9478) was 1065 ± 4 kg/m3. It also gave a mass density (298.15 K, 40000 kPa, x2 = 0.0432) of 889.1 ± 4 kg/m3, a mass density (298.15 K, 40000 kPa, x2 = 0.195) of 911.7 ± 4 kg/m3 and a mass density (298.15 K, 40000 kPa, x2 = 0.3968) of 946.5 ± 4 kg/m3. For the same compound, the mass density (298.15 K, 40000 kPa, x2 = 0.4933) was 965.1 ± 4 kg/m3, the mass density (298.15 K, 40000 kPa, x2 = 0.5296) was 972 ± 4 kg/m3 and the mass density (298.15 K, 40000 kPa, x2 = 0.5993) was 987.3 ± 4 kg/m3. It also gave a mass density (298.15 K, 40000 kPa, x2 = 0.7034) of 1011.2 ± 4 kg/m3, a mass density (298.15 K, 40000 kPa, x2 = 0.8023) of 1030.1 ± 4 kg/m3 and a mass density (298.15 K, 40000 kPa, x2 = 0.8921) of 1057.9 ± 4 kg/m3. It also gave a mass density (298.15 K, 40000 kPa, x2 = 0.9478) of 1072.7 ± 4 kg/m3, a mass density (308.15 K, 100 kPa, x2 = 0.0432) of 854.3 ± 4 kg/m3 and a mass density (308.15 K, 100 kPa, x2 = 0.195) of 875.2 ± 4 kg/m3. It also gave a mass density (308.15 K, 100 kPa, x2 = 0.3968) of 907.6 ± 4 kg/m3, a mass density (308.15 K, 100 kPa, x2 = 0.4933) of 925.2 ± 4 kg/m3 and a mass density (308.15 K, 100 kPa, x2 = 0.5296) of 931.7 ± 4 kg/m3. For the same compound, the mass density (308.15 K, 100 kPa, x2 = 0.5993) was 946.3 ± 4 kg/m3, the mass density (308.15 K, 100 kPa, x2 = 0.7034) was 969 ± 4 kg/m3 and the mass density (308.15 K, 100 kPa, x2 = 0.8921) was 1013.1 ± 4 kg/m3. For the same compound, the mass density (308.15 K, 100 kPa, x2 = 0.9478) was 1027.2 ± 4 kg/m3, the mass density (308.15 K, 5000 kPa, x2 = 0.0432) was 858.1 ± 4 kg/m3 and the mass density (308.15 K, 5000 kPa, x2 = 0.195) was 879.3 ± 4 kg/m3. For the same compound, the mass density (308.15 K, 5000 kPa, x2 = 0.3968) was 912.1 ± 4 kg/m3, the mass density (308.15 K, 5000 kPa, x2 = 0.4933) was 929.7 ± 4 kg/m3 and the mass density (308.15 K, 5000 kPa, x2 = 0.5296) was 936.2 ± 4 kg/m3. For the same compound, the mass density (308.15 K, 5000 kPa, x2 = 0.5993) was 950.8 ± 4 kg/m3, the mass density (308.15 K, 5000 kPa, x2 = 0.7034) was 973.7 ± 4 kg/m3 and the mass density (308.15 K, 5000 kPa, x2 = 0.8921) was 1018 ± 4 kg/m3. For the same compound, the mass density (308.15 K, 5000 kPa, x2 = 0.9478) was 1032.1 ± 4 kg/m3, the mass density (308.15 K, 10000 kPa, x2 = 0.0432) was 862 ± 4 kg/m3 and the mass density (308.15 K, 10000 kPa, x2 = 0.195) was 883.3 ± 4 kg/m3. The mass density (308.15 K, 10000 kPa, x2 = 0.3968) was 916.2 ± 4 kg/m3, the mass density (308.15 K, 10000 kPa, x2 = 0.4933) was 934.1 ± 4 kg/m3 and the mass density (308.15 K, 10000 kPa, x2 = 0.5296) was 940.4 ± 4 kg/m3. For the same compound, the mass density (308.15 K, 10000 kPa, x2 = 0.5993) was 955.2 ± 4 kg/m3, the mass density (308.15 K, 10000 kPa, x2 = 0.7034) was 978.2 ± 4 kg/m3 and the mass density (308.15 K, 10000 kPa, x2 = 0.8921) was 1022.7 ± 4 kg/m3. It also gave a mass density (308.15 K, 10000 kPa, x2 = 0.9478) of 1036.8 ± 4 kg/m3, a mass density (308.15 K, 20000 kPa, x2 = 0.0432) of 869.1 ± 4 kg/m3 and a mass density (308.15 K, 20000 kPa, x2 = 0.195) of 890.7 ± 4 kg/m3. The mass density (308.15 K, 20000 kPa, x2 = 0.3968) was 924 ± 4 kg/m3, the mass density (308.15 K, 20000 kPa, x2 = 0.4933) was 941.8 ± 4 kg/m3 and the mass density (308.15 K, 20000 kPa, x2 = 0.5296) was 948.4 ± 4 kg/m3. For the same compound, the mass density (308.15 K, 20000 kPa, x2 = 0.5993) was 958.3 ± 4 kg/m3, the mass density (308.15 K, 20000 kPa, x2 = 0.7034) was 986.4 ± 4 kg/m3 and the mass density (308.15 K, 20000 kPa, x2 = 0.8023) was 1004.4 ± 4 kg/m3. The mass density (308.15 K, 20000 kPa, x2 = 0.8921) was 1031.5 ± 4 kg/m3, the mass density (308.15 K, 20000 kPa, x2 = 0.9478) was 1045.7 ± 4 kg/m3 and the mass density (308.15 K, 30000 kPa, x2 = 0.0432) was 875.7 ± 4 kg/m3. It also gave a mass density (308.15 K, 30000 kPa, x2 = 0.195) of 897.5 ± 4 kg/m3, a mass density (308.15 K, 30000 kPa, x2 = 0.3968) of 931.2 ± 4 kg/m3 and a mass density (308.15 K, 30000 kPa, x2 = 0.4933) of 949.4 ± 4 kg/m3. The mass density (308.15 K, 30000 kPa, x2 = 0.5296) was 956 ± 4 kg/m3, the mass density (308.15 K, 30000 kPa, x2 = 0.5993) was 970.9 ± 4 kg/m3 and the mass density (308.15 K, 30000 kPa, x2 = 0.7034) was 994.2 ± 4 kg/m3. For the same compound, the mass density (308.15 K, 30000 kPa, x2 = 0.8023) was 1012.2 ± 4 kg/m3, the mass density (308.15 K, 30000 kPa, x2 = 0.8921) was 1039.7 ± 4 kg/m3 and the mass density (308.15 K, 30000 kPa, x2 = 0.9478) was 1054 ± 4 kg/m3. For the same compound, the mass density (308.15 K, 40000 kPa, x2 = 0.0432) was 881.7 ± 4 kg/m3, the mass density (308.15 K, 40000 kPa, x2 = 0.195) was 904 ± 4 kg/m3 and the mass density (308.15 K, 40000 kPa, x2 = 0.3968) was 937.9 ± 4 kg/m3. For the same compound, the mass density (308.15 K, 40000 kPa, x2 = 0.4933) was 956.3 ± 4 kg/m3, the mass density (308.15 K, 40000 kPa, x2 = 0.5296) was 963 ± 4 kg/m3 and the mass density (308.15 K, 40000 kPa, x2 = 0.5993) was 978.1 ± 4 kg/m3. The mass density (308.15 K, 40000 kPa, x2 = 0.7034) was 1001.5 ± 4 kg/m3, the mass density (308.15 K, 40000 kPa, x2 = 0.8023) was 1019.8 ± 4 kg/m3 and the mass density (308.15 K, 40000 kPa, x2 = 0.8921) was 1047.4 ± 4 kg/m3. The mass density (308.15 K, 40000 kPa, x2 = 0.9478) was 1061.7 ± 4 kg/m3.
